Values of other authors, collected in EP0112266B1, “Substituted tropyl and pseudotropyl benzoates and their use in migraine treatment” (MERRELL DOW FRANCE ET CIE, priority 1982, dated 1984).

Key:
[1] = target: T1, 5-HT M-receptor (Oryctolagus cuniculus, UniProt G1TUQ4); details: potency as 5-HT M-receptor antagonist; literature values (Fozard et al, Eur. J. Pharmacol. 1978/1979)
T1 sequence (G1TUQ4 24-513): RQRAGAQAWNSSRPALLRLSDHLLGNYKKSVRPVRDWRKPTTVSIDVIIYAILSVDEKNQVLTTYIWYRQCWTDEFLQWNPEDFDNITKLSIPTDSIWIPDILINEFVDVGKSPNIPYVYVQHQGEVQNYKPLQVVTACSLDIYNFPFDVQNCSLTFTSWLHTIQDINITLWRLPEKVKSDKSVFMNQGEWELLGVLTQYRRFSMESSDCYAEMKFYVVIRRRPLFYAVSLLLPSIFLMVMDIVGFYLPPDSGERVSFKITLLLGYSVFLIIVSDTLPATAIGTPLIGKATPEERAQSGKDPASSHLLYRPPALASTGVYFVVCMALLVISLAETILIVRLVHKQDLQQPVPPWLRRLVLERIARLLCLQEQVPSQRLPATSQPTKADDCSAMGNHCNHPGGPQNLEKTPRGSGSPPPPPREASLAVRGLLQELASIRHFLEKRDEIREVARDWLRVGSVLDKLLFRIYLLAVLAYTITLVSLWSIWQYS

[2] = slow intravenous injection, 10 mg
[3] = system: isolated guinea pig ileum; details: stated in Schultz et al, 1972

CN1[C@@H]2CC[C@H]1C[C@@H](OC(=O)c1ccccc1)C2 [benzoyl tropine]
pA2 [1]: 7.2

CCN(CC)CCNC(=O)c1cc(Cl)c(N)cc1OC [metoclopramide]
relief of acute migraine attack [2]: immediate relief

CN1[C@@H]2CC[C@H]1C[C@@H](OC(=O)c1ccccc1Cl)C2 [tropyl 2-chlorobenzoate]
spasmolytic- inducing activity [3]: spasmolytic- inducing activity
